Literature values in patent publication US20040101555A1, “Method for stable and controlled delivery of (—)-hydroxycitric acid” (priority 2002, published 2004).

Key:
[1] = single large oral dose or two divided oral doses totaling one fourth of the single dose; high-sugar diet
[2] = over a three week period; higher dosage, alone

Structure (SMILES) | reduction in food consumption [1] [%] | average weight loss [2] [pounds per week]
O=C(O)CC(O)(C(=O)O)C(O)C(=O)O (single isomer, unassigned; (-)) [HCA, (−)-Hydroxycitric acid] | ≥ 10 | 
O=C([O-])CC(O)(C(=O)[O-])C(O)C(=O)[O-].[K+].[K+].[K+] (stereo not drawn) [potassium (−)-hydroxycitirate, potassium (−)-hydroxycitrate] |  | 3
